Consider eight molecules from publication PMC8659110, “Preliminary Study of New Gallium-68 Radiolabeled Peptide Targeting NRP-1 to Detect Brain Metastases by Positron Emission Tomography” (Molecules, 2021).

Read-outs that look alike come from different tables or passages of the source. Where a SMILES comes first, the peptide text is derived from it. Primed or numbered codes have the meaning given here. Where no end group is shown, it is not given here. The star is where a group is joined. Cy5(nonsulfonated) = CN1C(=CC=CC=CC2=[N+](CCCCCC(=O)*)c3ccccc3C2(C)C)C(C)(C)c2ccccc21; NODAGA = O=C(O)CN1CCN(CC(=O)O)CCN(C(CCC(=O)*)C(=O)O)CC1; Cy5 = Cy5 fluorophore (fluorescent dye); NODAGA′ = chelator A value given as a limit tells only on which side of the number the result lay.

Series [1] is classed as physicochemical. Conditions: 2 h. The protocol:
(§1) The stability of [^68Ga]Ga-NODAGA-K(Cy5)DKPPR was performed in various media, final formulated media, and plasma.
The final [^68Ga]Ga-NODAGA-K(Cy5)DKPPR was kept at room temperature and analyzed by radio-HPLC at the end of the synthesis and 1 h, 2 h, and 3 h after manufacturing.

The format of series [2] is in vitro ADME, rodent. The protocol:
as §1
For the stability in plasma, 100 µL of [^68Ga]Ga-NODAGA-K(Cy5)DKPPR was added to 400 µL of fresh rodent plasma and was incubated at 37 °C for 0, 30, 60, and 120 min. After incubation, the solutions were treated with 400 µL of acetonitrile to precipitate the proteins, vortexed for 1 min, and then centrifuged (2500 rpm, 980 G, 5 min). The supernatant layer was analyzed by analytical radio-HPLC.

Series [3] concerns MDA-MB-231 tumor in the rat brain. Set-up: species or system nude rat. To be noted: in vivo. The protocol:
Breast cells from the MDA-MB-231 lineage (MDA-MB-231 (ATCC® HTB-26)) were induced by the vascular injection of 2.5 × 10^5 cells resuspended in a volume of 50 µL of RPMI medium (Merck, Molsheim, France) into the animal’s internal carotid.
PET recordings were obtained with a camera dedicated to small animal studies (Inveon, Siemens Preclinical Solutions, Knoxville, TN, USA). After rats anesthetized with isoflurane, 50 MBq of [^68Ga]Ga-NODAGA-K(Cy5)DKPPR (1st day) were injected as a bolus via a lateral tail vein. […]
The uptake values are expressed in SUV (Standardized Uptake Values), which are standardized fixation values relative to the animal’s weight and injected activity. Tissue time activity curves (TTACs) for tumors and various organ activities were determined by average SUVs in volumes of interest (VOI), which were drawn with dedicated software (Inveon Research Workplace 4.1, Siemens®, Knoxville, USA) on static images encompassing the whole acquisition. […]

The subject of a further series is MDA-MB-231 cells. The experiment in a line: Proliferation assay, real-time cell tracking (IncuCyte), MDA-MB-231. The series is classed as cell-based. Conditions: for Doubling-time values (Time (h) ± SD): exponential phase. The protocol:
(§2) The proliferation of MDA-MB-231 and HUVEC cells were investigated using a label-free, noninvasive IncuCyte® S3 live-cell imaging system (Sartorius, Germany). Cells were plated as described for metabolic activity placed in an incubator (Binder) at 37 °C. Cells were photographed at 2-h intervals using a 20× objective over several days. […] Phase–object confluence was calculated at each time point based on the segmentation of high-definition phase-contrast images using IncuCyte S3 2018B software and expressed in percentages. Experiments were performed in triplicate.
(§3) Cell doubling time (DT) was calculated using the following Equation (1):(1) DT=Tend−TstartLn2/LnCend−LnCstart where Tstart/Tend are the times at the start/end of the exponential growth phase. Cstart/Cend are the percentage of confluence of the cells at the start/end of the exponential growth phase.

The nature of series [4]: Photophysical properties (absorption and fluorescence) in water. It is filed as physicochemical. To be noted: for Fluorescence quantum yield (φF): λex = 590 nm. The protocol:
All reactions involving cyanine5 compounds were performed in the dark. Preparative reverse-phase high-performance liquid chromatography (HPLC) was performed on SPOT PREP Liquid Chromatography (ARMEN Instrument, Saint-Avé, France) with a Pursuit 5-C18 column (5 μm, 21.2 × 150 mm; Varian). Pure compounds obtained were analyzed accordingly by LC-MS on a Shimadzu LCMS-2020 monitored by a Diode Array Detector SPD-M20A (Shimadzu, Marne la Vallée, France) using a Pursuit 5-C18 column (4.6 × 150 mm; Varian) (Varian, Agilent Technologies, Santa Clara, CA, USA). Absorption spectra were recorded on a Perkin-Elmer Lambda EZ210 (Perkin-Elmer, Courtaboeuf, France) double-beam UV–visible spectrophotometer. Fluorescence spectra were recorded on a Fluorolog-3 spectrofluorometer FL3-222 (Horiba Jobin Yvon, Longjumeau, France) with a thermostated cell compartment (25 °C) using a 450-W Xenon lamp. The fluorescence quantum yield (φF) was determined using tetraphenyl porphyrin (TPP) solution in toluene as the fluorescence standard (φF = 0.11).

For series [5], the target named is NRP-1 recombinant chimeric protein. The experiment in a line: Competitive binding assay with biotinylated VEGF-165 on recombinant NRP-1. To be noted: for IC50: in the presence of heparin, 2 h at room temperature, read-out: IC50 ± SD (displacement of 50% of b-VEGF-165); for Concentration needed to decrease the binding of b-VEGF-165 to NRP-1: only at high concentration. An excerpt: (§4) We evaluated the binding capacity of compounds toward NRP-1 using two different techniques: (1) a competitive binding assay with biotinylated VEGF (b-VEGF-165), a natural ligand of NRP-1 immobilized on a microplate surface in the presence of heparin, which allowed calculating the IC50 (the concentration of compound that displaced 50% of b-VEGF-165), and (2) surface plasmon resonance (SPR), a sensitive, optical-based, label-free detection technology for the real-time monitoring of molecular interactions between injected analytes and ligands covalently attached to the surface of a sensor chip. This technique was used to calculate the KD. VEGF-165 was used as the positive control in these two techniques.
The binding of compounds for the NRP-1 protein was evaluated in terms of the half-maximal inhibitory concentration (IC50 values) through a competitive assay, as previously described. VEGF-165, the natural ligand of NRP-1, was used as the positive control. Briefly, the surfaces of Maxisorp microplates (Thermo Fisher Scientific, France) were coated with NRP-1 recombinant chimeric proteins (Bio-techne, France). The binding of compounds to NRP-1 was assessed using biotinylated VEGF-165 (b-VEGF-165) (AcroBioSystem, Interchim, France) in the presence of heparin (Bio-techne, France) in competition or not with various concentrations of compounds or unlabeled VEGF-165 (Bio-techne, France) as the positive control. After 2 h of incubation at room temperature, the plates were washed, and the amount of bound b-VEGF-165 was stained with streptavidin horseradish peroxidase conjugate (Bio-techne, France) and assayed. […] The results were expressed as the mean of the relative absorbance percentage to wells containing only blocking buffers of triplicate measurements. The affinities were estimated as the IC50 values (i.e., the concentration of compounds that displaced 50% of β-VEGF-165 binding) calculated using the one-site fit log-IC50 nonlinear analysis regression of GraphPad Prism 6 software (v 6.05, USA).

The subject of the next series is HUVEC cells. As to the kind of experiment: Proliferation assay, real-time cell tracking (IncuCyte), HUVEC. The series is classed as cell-based, human. To be noted: for Doubling-time values (Time (h) ± SD): exponential phase. Here is the method: as §2, §3
A further series concerns NRP-1 protein. Also on record: method as in PMID 19464192, PMID 25645959. To be noted: previous studies; cited from earlier work.
In a further series the target is NRP-1. Also on record: method as in PMID 22372770. Conditions: read-out: KD previously found; cited from earlier work.
Series [6] concerns the target T1, recombinant rat NRP-1 protein (Rattus norvegicus, UniProt Q9QWJ9).
T1 construct: purchased Bio-techne (France)
The experiment in a line: Surface plasmon resonance (SPR) on immobilized recombinant NRP-1. The series is classed as binding. Conditions: Figure S5, injected at 10 and 30 µM.
Description: as §4
The equilibrium dissociation constant (KD) was evaluated using surface plasmon resonance, based on Gries et al.. All experiments were performed at 25 °C using the BIACORE T200 instrument (GE Healthcare Biacore, Uppsala, Sweden). Sensor surfaces and other Biacore consumables were purchased from GE Healthcare Biacore (USA). […]
They flowed at a rate of 30 µL/min for 300 s at 25 °C. […] The equilibrium response was recorded 5 s before the end of the compound injection (time window: 5 s). […] The KD value was determined by fitting the response (RU) versus analyte concentration (µM) curve to a simple 1:1 interaction model with the BiaEvaluation 3.2 software (GE Healthcare). […]

Regarding [^68Ga]Ga-NODAGA-K(Cy5)DKPPR, the “In vitro stability, remaining stable” value in series [1] is given as > 95%; in series [2] (plasma, 2 h), > 95%. Further, the “In vitro stability (time)” value in series [2] was > 120 min. The “Time to plateau of normalized tumor TTAC after injection” value in [3] is reported as “roughly 10 min”.
As for `CN1C(=CC=CC=CC2=[N+](CCCCCC(=O)NCCCC[C@H](NC(=O)CCC(C(=O)O)N3CCN(CC(=O)O)CCN(CC(=O)O)CC3)C(=O)N[C@@H](CC(=O)O)C(=O)N[C@@H](CCCCN)C(=O)N3CCC[C@H]3C(=O)N3CCC[C@H]3C(=O)N[C@@H](CCCNC(=N)N)C(=O)O)c3ccccc3C2(C)C)C(C)(C)c2ccccc21` (stereo partly shown) [^natGa-NODAGA-K(Cy5)DKPPR, metal not drawn] ({NODAGA}-K(Cy5(nonsulfonated))DKPPR-OH; C-terminus assumed), the “Doubling-time values (Time (h) ± SD)” value was determined as 31 ± 1 h in the series with MDA-MB-231 cells (MDA MB 231, 1 µM); 32 ± 1 h with MDA-MB-231 cells (MDA MB 231, 10 µM); 30 ± 3 h with HUVEC cells (1 µM); 28 ± 2 h with HUVEC cells (10 µM). Moreover, the “Proliferation of cells (confluence follow-up)” value is recorded as “did not modify” in the series with MDA-MB-231 cells (MDA-MB-231, 0–10 µM) and “did not modify” in the series with HUVEC cells (0–10 µM). Also, in [4], the “Molar extinction coefficient (ε)” value is recorded as 44,552 L mol^−1 cm^−1. Besides, the “Fluorescence quantum yield (φF)” value in series [4] worked out at 61%. Besides, the IC50 in series [5] came out at 100 nM.
For “VEGF-165: natural ligand of NRP-1, positive control”, in series [5] (used at 26 nM, positive control, data not shown), the “Shift of b-VEGF-165 binding to the receptor” value is recorded as “completely shifted”.
Regarding “ATWLPPR [ligand peptide of NRP-1 from previous studies]”, in the series on NRP-1 protein, the concentration for half-maximal inhibition (IC50) was 19 µM.
With H-KDKPPR-OH [KDKPPR], the “Doubling-time values (Time (h) ± SD)” value in the series with MDA-MB-231 cells (MDA MB 231, 1 µM) was 32 ± 1 h; in the series with MDA-MB-231 cells (MDA MB 231, 10 µM), 33 ± 2 h; in the series on HUVEC cells (1 µM), 29 ± 2 h; with HUVEC cells (10 µM), 30 ± 2 h. Further, the IC50 in series [5] is 2000 ± 1000 nM. The dissociation constant (Kd) on NRP-1 is 8.7 µM.
With KRPKPD, the “SPR interaction toward NRP-1 (shape of curve)” value in [6] was “weak affinity or a nonspecific interaction”. In series [5], the IC50 is 300000 nM and the “Concentration needed to decrease the binding of b-VEGF-165 to NRP-1” value is > 100 µM.
On to `C[N+]1=C(C=CC=CC=C2N(CCCCCC(=O)ON3C(=O)CCC3=O)c3ccccc3C2(C)C)C(C)(C)c2ccccc21.[Cl-]` [Cy5-NHS, Cyanine5-NHS ester, reference compound], for which, in series [4], the “Molar extinction coefficient (ε)” value was 209,000 L mol^−1 cm^−1 and the “Fluorescence quantum yield (φF)” value amounted to 27%.
In the case of “^natGa-NODAGA-K(Cy5)RPKPD ({NODAGA′}-K(Cy5)RPKPD; also: NODAGA complexed with natGa)”, the “SPR interaction toward NRP-1 (shape of curve)” value in series [6] was “weak affinity or a nonspecific interaction”. Besides, the “Doubling-time values (Time (h) ± SD)” value was 33 ± 1 h with MDA-MB-231 cells (MDA MB 231, 1 µM); 33 ± 3 h in the series with MDA-MB-231 cells (MDA MB 231, 10 µM); 27 ± 1 h with HUVEC cells (1 µM); 28 ± 1 h with HUVEC cells (10 µM). Besides, the “Molar extinction coefficient (ε)” value in series [4] is reported as 39,870 L mol^−1 cm^−1. Moreover, the “Fluorescence quantum yield (φF)” value in series [4] is given as 79%. The “Concentration needed to decrease the binding of b-VEGF-165 to NRP-1” value in series [5] is recorded as > 100 µM.

In general, IC50 refers to the concentration at which inhibition is half-maximal. One may read the Kd as the equilibrium constant for the complex coming apart.
